Results on five compounds are retold here after patent publication US12637476B2, “Substituted carbamate macrocyclic compounds and related methods of treatment” (Alkermes, Inc., priority 2021, dated 2026).

Some results are limits rather than exact numbers.

The target of the assay is T1, human orexin-2 receptor (OX2R) (Homo sapiens, UniProt O43614).
T1 construct: expressed in transfected cells; host or cells: T-Rex CHO cells, induced with doxycycline
T1 sequence (O43614 1-444): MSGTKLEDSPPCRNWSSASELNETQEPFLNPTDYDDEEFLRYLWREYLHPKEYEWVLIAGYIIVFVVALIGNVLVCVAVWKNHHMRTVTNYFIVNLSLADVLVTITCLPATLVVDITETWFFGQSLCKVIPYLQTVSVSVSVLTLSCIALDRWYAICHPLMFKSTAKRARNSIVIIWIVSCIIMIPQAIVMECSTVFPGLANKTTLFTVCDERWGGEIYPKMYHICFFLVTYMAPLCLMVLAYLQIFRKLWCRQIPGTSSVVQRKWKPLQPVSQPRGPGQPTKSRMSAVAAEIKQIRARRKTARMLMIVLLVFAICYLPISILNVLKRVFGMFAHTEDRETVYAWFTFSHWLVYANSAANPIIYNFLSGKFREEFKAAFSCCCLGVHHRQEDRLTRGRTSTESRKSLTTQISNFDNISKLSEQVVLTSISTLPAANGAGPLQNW
The assay can be described thus: Human OX2R IP1 assay. The format is cell-based. Particulars: T-Rex CHO cells stably overexpressing human OX2R, IP1 accumulation, 1 hr at 37 degrees C. As to the method: T-Rex CHO cells stably overexpressing the human orexin-2 receptor (OX2R) were induced overnight with 1 μg/mL of doxycycline in a T225 flask. 24 hours post induction, cells were lifted with accutase and plated into a 384-well proxy plate at 30,000 cells/well. Cells were then treated with different test compounds in 1× stimulation buffer containing 10 mM Hepes, 1 mM CaCl2, 0.5 mM MgCl2, 4.2 mM KCl, 146 mM NaCl, 5.5 mM glucose, and 50 mM LiCl, pH 7.4, for 1 hr at 37 degrees C. Following incubation, the reaction was terminated by the addition of detection mix, which is composed of IP1-d2 and anti-IP1-cryptate diluted in lysis buffer as well as 1× stimulation buffer. The plates were allowed to incubate for 1 hour at room temperature and were then read in the EnVision® multimode plate reader, measuring inositol phosphate levels.
Cisbio IP1 is a cell-based functional assay quantifying the accumulation of inositol monophosphate (IP), a metabolite released as a result of orexin 2 receptor activation through the phospholipase C-Gq signaling pathway. This is a competitive immunoassay in which the IP1 produced by the cells upon receptor activation competes with the IP1 analog coupled to the d2 fluorophore (acceptor) for binding to an anti-IP1 monoclonal antibody labeled with Eu cryptate (donor). The measured HTRF-FRET based signal is inversely proportional to the IP1 concentration produced.
The EC50 values reported in Table 2 were obtained according to the human OX2R IP1 assay described above. Data are the mean EC50 values±S.E.M.
Broadly, the EC50 is the concentration giving half of the maximal effect. High values mean a less potent agent, low ones a more potent agent. The compound `CCN1C(=O)OCC(=O)N2CCC[C@H](NS(C)(=O)=O)[C@@H]2CO[C@H]2CC[C@@H]1CC2` [Compound 1] had an EC50 of 100 to 1000 nM.

`CN1C(=O)OCC(=O)N2CCC[C@H](NS(C)(=O)=O)[C@@H]2CO[C@H]2CC[C@@H]1CC2` [Compound 2]: the half-maximal effective concentration (EC50) was in the range of 100 to 1000 nM.

`CS(=O)(=O)N[C@H]1CCCN2C(=O)COC(=O)N(C3CC3)[C@H]3CC[C@H](CC3)OC[C@@H]12` [Compound 3]: the EC50 was 100 to 1000 nM.

Regarding `CS(=O)(=O)N[C@H]1CCCN2C(=O)COC(=O)N(CC3CC3)[C@H]3CC[C@H](CC3)OC[C@@H]12` [Compound 10], the EC50 lay in the range of 100 to 1000 nM.

Take `CS(=O)(=O)N[C@H]1CCCN2C(=O)COC(=O)N(CC(F)(F)F)[C@H]3CC[C@H](CC3)OC[C@@H]12` [Compound 11]: the EC50 was over 1000 nM.
